The text below walks through data of publication PMC5947712, “High‐Throughput Kinetic Analysis for Target‐Directed Covalent Ligand Discovery” (Angewandte Chemie (International Ed. in English), 2018).

For orientation: inhibition means the share of the control response that was lost under treatment.

The test deals with T1, Cdk2:cyclin A2 (Homo sapiens, UniProt P24941).
T1 construct: GST (N, cleaved yes); made in house; host or cells: E. coli Tuner(DE3)
Kind of test: In vitro kinase activity after 24 h incubation of active Cdk2:cyclin A2 with acrylamides. The settings on record: 0.5 mM, n=3, read-out: % inhibition ± SEM Cdk2. Format: biochemical. How it is done:
Figure 6 a) Sequence alignment of Cdk family. Cys177 is highlighted in yellow. b) Published selectivity profiles of selected Cdk2 inhibitors.29 c) Active Cdk1/Cdk2:cyclin A2 was incubated with acrylamides 1 and 2 (0.5 mM) for 24 hours and then their in vitro kinase activity was measured (n=3). […]
Tables! 2R6.! Molecular! replacement! was! conducted! on! all! data! sets! using!Phaser[14]/MOLREP[15]!against! apoRCdk2! (PDB:!
4EK3)!and!the! model! was! iteratively! refined! using! Phenix.Refine[16]!with! manual! modelling! and! adjustments! carried! out! in!
COOT[17].! Descriptions! of! the! ligands! and! links! were! generated! with! JLigand[18]!and! refined! with! Refmac[19].! Electron! density! […]
Cdk2! (1! mg)! was! sequentially! incubated! with! aliquots! of! CAK1! (3!×!0.05! mg)! at! r.t.! for! […]
Phosphorylation! of! […] Cdk2! during! gel! electrophoresis! and! the! reaction! was! monitored! by! […]
initiated!by!addition!of!0.5!mM!ATP!and!0.24!mM!substrate!peptide!([…])!and!the!absorbance!at!340!nm!was!moniR […]
plate! reader! […]
was!measured!from!the!gradient!during!the!linear!phase!of!product!accumulation.!! […]
ments,! the! wavelength! was! adjusted! to! 230! nm! and! elipticity! was! measured! at! […]
repeats!of!10!s!integrations!per!temperature.!The!meltRtemperature!(Tm)!was!determined!using!Prism!6.0!by!fitting!a!sigmoidal! […]
The! cell! lysates! were!diluted! to! […] RIPA! lysis! buffer,! as! quantified! by! the! […]

Turning to `C=CC(=O)N1CCN(C(=O)OC)c2ccccc21` [Acrylamide 2], the inhibition at 500 µM stood at 5 ± 6%. Regarding `C=CC(=O)N1CCN(C(=O)OC(C)(C)C)c2ccccc21` [Acrylamide 1], the inhibition at 500 µM stood at 83 ± 3%.
